Data reported in patent US20240350392A1, “COMPOSITION WITH BIOLOGICALLY ACTIVE AGENT” (THE BOOTS COMPANY PLC, priority 2021, published 2024).
Residues, ends and D or L forms follow the SMILES beside them. *: point of attachment. Palmitoyl = CCCCCCCCCCCCCCCC(=O)*

Experiment: Franz cell ex vivo skin explant penetration with 3D OrbiSIMS analysis
Assay type: in vitro ADME, human
Details: after 1 hour in Franz cell; formulation with glycerin+methyl gluceth-20 versus glycerin only (FIG. 1)
Experimental: For ex vivo analysis, full thickness human skin tissue was removed during cosmetic surgery from Caucasian female donors (aged 35-70). The explant was frozen immediately post-surgery, shipped and stored at −20° C. prior to use.
The tissue was then defrosted, cut and mounted, dermal side down, in a Franz-type static diffusion cell set-up (Franz, 1975), with an exposed surface area of 1.1 cm^2. Infinite doses of the cosmetic formulations were applied to the donor chamber, with the explant exposed to the formulations for 1 hour in a water bath set to 36.5° C. Sink conditions were maintained throughout the experiments.
After 1 hour, the Franz cell was dismantled, excess formulation was removed with a dry sponge and the skin explant was wiped with a sponge soaked in Teepol Solution (3% v/v). Next, the explant was dehydrated under vacuum at room temperature for 24 hours before 3D OrbiSIMS analysis 3D OrbiSIMS Analysis […]
A 20 KeV Ar 3000^+ analysis beam with a diameter of 20 μm was used as the primary ion source. Samples were analysed at ambient temperature across a 400×400 μm area in positive polarity with sawtooth raster mode and a total crater size of 486×486 μm. […] Mass spectra were recorded at a resolution of 240,000 at m/z 200 in the mass range of 75 to 1,125 m/z. […]

Pal-GHK peptide ion intensity in skin explant: more peptide ion present
SMILES: CCCCCCCCCCCCCCCC(=O)NCC(=O)N[C@@H](Cc1c[nH]cn1)C(=O)N[C@@H](CCCCN)C(=O)O [Pal-GHK, N-Palmitoyl-Gly-His-Lys] (Palmitoyl-Gly-His-Lys-OH; C-terminus assumed)
